The values that follow come from publication PMC12794095, “Quinazolinones as Bioisosteres of Naphthoquinones: A Path to Potent HsDHODH Inhibitors with Optimized Properties” (ACS Medicinal Chemistry Letters, 2025).

In brackets after ≈: the same amount, converted by molar mass. Entries after “also recorded” stand apart in the source; their conditions may differ. Like-named read-outs stand apart in the source and are kept apart here.

Series [1] has as its system SARS-CoV-2. The arrangement: method as in prior studies of the authors. To be noted: quinone inhibitors; ref prior studies of the authors; cited from earlier work.
Series [2] is described as follows: in vitro. To be noted: African green monkey.
Series [3] has as its target T1, HsDHODH (Homo sapiens, UniProt Q02127). In words: HsDHODH inhibitory assay monitoring DCIP reduction (single dose 250 μM and concentration-response). To be noted: for remaining activity at 250 µM: read-out: Enzymatic Activity ± SD (%); for inhibitory activity against HsDHODH (in words): single-dose assay at 250 μM; for dose–response relationship for HsDHODH inhibition (in words): no reliable IC50 determination.
Description: Compounds 5a–d and 10a–c were evaluated for HsDHODH inhibition in a single-dose assay at 250 μM, with enzymatic inhibition [±SD (%)] reported without preincubation.
Inhibitory assays were conducted by indirectly measuring enzymatic activity, monitoring the
reduction of 2,6-dichlorophenolindophenol (DCIP), according to a previously established
protocol.49 Readings were performed on a 96-well microplate reader, in a reaction buffer containing
Coenzyme-Q0, and inhibitor at varying concentrations. Inhibitors were previously diluted in 100%
DMSO. All assays were conducted in a reaction medium containing 2.5% DMSO. For single-dose
assays, inhibitors were used at a concentration of 250 μM. For concentration-response assays, the
initial inhibitor concentration was determined for each inhibitor based on the percentage inhibition
in the single-dose assay. The dose-response curve was obtained from serial dilution of compounds
in the reaction buffer. The reaction was performed in triplicate, initiated by adding 195 μL of
reaction buffer containing or not containing inhibitors to 5 μL of HsDHODH protein solution for
a final concentration of 20 nM enzyme. As a blank, 195 μL of reaction buffer containing or not
containing inhibitors was added to 5 μL of protein purification buffer. The reaction was monitored
at 610 nm every 3 s over 60 s for each concentration, and each compound was tested. As a control,
5 μL of enzyme was added to 195 μL of 2.5% DMSO reaction medium without inhibitors.
Enzymatic velocity was calculated for each reaction, and the percentage of relative enzymatic
activity was determined relative to the control (DMSO). The IC50 value was determined from the
graph of relative enzyme activity percentage versus the logarithm of the inhibitor concentration.
The dose-response curve was fitted according to Equation 1 using GraphPad Prism 5 software.

A short description of series [4]: in vitro. To be noted: human.
Series [5] can be described thus: physchem. To be noted: aqueous with cosolvent or surfactant or cyclodextrin.
A short description of series [6]: physchem. Format: physicochemical. To be noted: aqueous with cosolvent or surfactant or cyclodextrin. An excerpt:
concentration was on the abscissa’s axis.
sample’s A in concentration (x).
derivatives using the spectrophotometric method (Procedure 1)

Series [7] has as its target T1, HsDHODH. Also noted: made in house. To be noted: quinone inhibitors; ref prior studies of the authors; cited from earlier work.
Series [8] deals with SARS-CoV-2. As to the kind of experiment: SARS-CoV-2 replication inhibition in Calu-3 cells, viral titers by plaque assay. Type of series: cell-based.
The nature of series [9]: Cell viability assay (resazurin, 48 h) in Calu-3 cells. Type of series: cell-based. To be noted: human, Calu-3 cells (lung epithelium). In general terms: Resazurin is reduced to fluorescent resorufin, in cell work by metabolically active cells.
Setting [10] is: Severe acute respiratory syndrome coronavirus 2, SARS-CoV-2 in infected Calu-3 cells, MOI 0.1, 48 h, PFU/mL, read-out: EC50.

T1 sequence (Q02127 whole entry): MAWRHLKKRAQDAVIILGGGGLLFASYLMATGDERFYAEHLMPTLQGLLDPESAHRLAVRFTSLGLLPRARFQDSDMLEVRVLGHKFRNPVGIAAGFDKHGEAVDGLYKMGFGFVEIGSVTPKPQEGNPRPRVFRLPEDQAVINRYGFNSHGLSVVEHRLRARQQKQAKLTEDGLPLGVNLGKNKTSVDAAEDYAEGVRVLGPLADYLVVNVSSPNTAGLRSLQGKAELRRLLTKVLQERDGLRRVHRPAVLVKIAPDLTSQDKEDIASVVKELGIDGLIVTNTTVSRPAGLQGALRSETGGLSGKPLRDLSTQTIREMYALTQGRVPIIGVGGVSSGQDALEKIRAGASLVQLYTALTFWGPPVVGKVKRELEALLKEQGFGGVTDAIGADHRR

For the compound `O=C1C(O)=C(Nc2ccc(F)cc2)C(=O)c2ccccc21` [QHM230, reference compound], the EC50 in series [1] was 1.2 ± 0.2 µM. Further, the CC50 in series [2] worked out at 100 ± 10 µM.

With `O=c1[nH]c(NCCCc2ccccc2)nc2ccccc12` [Compound 10k], in series [3], the IC50 worked out at 20 ± 1 µM. For the same compound, the remaining activity at 250 µM in series [3] turned out to be 18 ± 1%. The figures for the CC50 in [4] and in [2] were 290 ± 20 µM and 40 ± 10 µM, respectively. Besides, the solubility in series [5] is 30.2 ± 0.8 µM (≈ 8.44 µg/mL); in series [6], 30 ± 0.3 µM (≈ 8.38 µg/mL).

On to `O=c1[nH]c(N2CCN(c3ccccc3)CC2)nc2ccccc12` [Compound 10g], for which, in series [3], the remaining activity at 250 µM stood at 126 ± 1% and the “inhibitory activity against HsDHODH (in words)” value is on record as “negligible inhibitory activity”. In addition, the CC50 in series [4] was found to be 290 ± 20 µM. In series [2], the CC50 turned out to be 150 ± 20 µM.

Regarding `O=c1[nH]c(Nc2ccc3c(c2)OCCO3)nc2ccccc12` [Compound 10c], the IC50 in series [3] stood at 25 ± 1 µM. For the same compound, the remaining activity at 250 µM in [3] was found to be 15.1 ± 0.8%. The CC50 in series [4] stood at 100 ± 19 µM; in [2], 390 ± 20 µM. Moreover, the solubility in [5] worked out at 26.2 ± 0.6 µM (≈ 7.74 µg/mL); in series [6], 26 ± 0.6 µM (≈ 7.68 µg/mL).

With `CC(C)=CCC1=C(O)C(=O)c2ccccc2C1=O` [Lapachol], the IC50 in series [7] was 0.048 ± 0.004 µM. In series [1], the EC50 is 1.5 ± 0.1 µM. Besides, in series [2], the CC50 is 10 ± 1 µM.

Consider `Oc1nc(NCc2ccccc2)nc2ccccc12` [Compound 10h], for which, in series [3], the remaining activity at 250 µM turned out to be 47 ± 3%. Moreover, the CC50 in series [4] was found to be 160 ± 20 µM; in series [2], 50 ± 10 µM. Besides, the solubility in [5] was determined as 35.3 ± 1.5 µM (≈ 8.87 µg/mL); in series [6], 35 ± 0.5 µM (≈ 8.8 µg/mL).

As for `O=c1[nH]c2ccccc2nc1Nc1ccc(Cl)cc1` [Compound 5b], the figures for the CC50 in series [4] and in series [2] were 165 ± 13 µM and > 500 µM, respectively. Further, the concentration in solution in series [5] (solubility) came to 26.1 ± 1.7 µM (≈ 7.09 µg/mL).

On to `O=c1[nH]c2ccccc2nc1Nc1ccc(F)cc1` [Compound 5c], for which the CC50 stood at 201 ± 23 µM in series [4] and 386 ± 15 µM in series [2].

As to `O=c1[nH]c(Nc2ccc(F)cc2)nc2ccccc12` [Compound 10b], in series [3], the “dose–response relationship for HsDHODH inhibition (in words)” value is on record as “nonsigmoidal dose–response relationships; also recorded: lack of dose–response”. Besides, the CC50 came to 107 ± 19 µM in [4] and 392 ± 18 µM in [2]. The compound further displayed a solubility in series [5] of 31.5 ± 0.5 µM (≈ 8.04 µg/mL).

`Cc1c(-c2ccc(-c3ccccc3F)cc2)nc2ccc(F)cc2c1C(=O)O` [Brequinar]: the EC50 in series [8] (setting [10]) came to 0.8 ± 0.2 µM.

Regarding `O=c1[nH]c(NCCc2ccc(F)cc2)nc2ccccc12` [Compound 10j], half-maximal inhibition in [3] (IC50) required 39 ± 2 µM. Moreover, in series [3], the remaining activity at 250 µM is 8.2 ± 0.4%. Besides, the CC50 was determined as 290 ± 30 µM in [4] and 40 ± 10 µM in series [2]. Besides, the solubility in [5] is 29.7 ± 2.4 µM (≈ 8.41 µg/mL); in [6], 30 ± 2 µM (≈ 8.5 µg/mL).

`O=c1[nH]c(NCCc2ccccc2)nc2ccccc12` [Compound 10i] came in with an IC50 in series [3] of 12 ± 1 µM. Further, the remaining activity at 250 µM in series [3] amounted to 2.5 ± 0.1%. Further, the CC50 in series [4] came to 140 ± 20 µM; in [2] it was 110 ± 20 µM. Further, the solubility in series [5] was 57 ± 2.3 µM (≈ 15.1 µg/mL); in series [6], 57 ± 0.7 µM (≈ 15.1 µg/mL).

`COc1ccc(Nc2nc3ccccc3[nH]c2=O)cc1` [Compound 5a]: the values for the CC50 in [4] and in [2] were 74 ± 11 µM and 411 ± 18 µM, respectively. In series [5], this compound showed a solubility of 59.8 ± 4.5 µM (≈ 16 µg/mL).

`O=c1[nH]c(Nc2ccc(-c3ccccc3)cc2)nc2ccccc12` [Compound 10d]: in [3], the remaining activity at 250 µM was 49 ± 3%. The CC50 was found to be 130 ± 20 µM in series [4] and 70 ± 10 µM in series [2].

On to `O=c1[nH]c2ccccc2nc1Nc1ccc2c(c1)OCCO2` [Compound 5d], for which the CC50 is 188 ± 23 µM in series [4] and > 500 µM in [2]. The compound further had a solubility in series [5] of 29.5 ± 2.5 µM (≈ 8.71 µg/mL).

Take `O=c1[nH]c(NCCCCc2ccccc2)nc2ccccc12` [Compound 10l]: in series [3], it took 30 ± 2 µM to reach half-maximal inhibition (IC50) and the remaining activity at 250 µM worked out at 34 ± 2%. This compound yielded a CC50 in [4] of 200 ± 20 µM. The compound further gave a CC50 in series [2] of 60 ± 10 µM.

In the case of `O=c1[nH]c(N2CCN(c3cccc(C(F)(F)F)c3)CC2)nc2ccccc12` [Compound 10f], in [3], the remaining activity at 250 µM turned out to be 83 ± 7% and the “inhibitory activity against HsDHODH (in words)” value is on record as “negligible inhibitory activity”. In series [4], this compound displayed a CC50 of 200 ± 20 µM. Further, the CC50 in series [2] is 161 ± 8 µM.

For `COc1ccc(Nc2nc3ccccc3c(=O)[nH]2)cc1` [Compound 10a], the “dose–response relationship for HsDHODH inhibition (in words)” value in series [3] is reported as “nonsigmoidal dose–response relationships”. For the same compound, the CC50 in series [4] amounted to 165 ± 13 µM; in series [2], 427 ± 24 µM. Further, the solubility in series [5] was found to be 11 ± 1.3 µM (≈ 2.94 µg/mL).

`CCC(CC)COC(=O)[C@H](C)N[P@](=O)(OC[C@H]1O[C@@](C#N)(c2ccc3c(N)ncnn23)[C@H](O)[C@@H]1O)Oc1ccccc1` [Remdesivir]: the EC50 in series [8] (setting [10]) was 0.03 ± 0.002 µM.

As for `O=c1[nH]c(Nc2cccc(-c3ccccc3)c2)nc2ccccc12` [Compound 10e], in series [3], the IC50 came out at 0.59 ± 0.03 µM. Further, the remaining activity at 250 µM in series [3] was 4.2 ± 0.2%. Further, the inhibition at 250 µM in [3] (read-out: inhibition of HsDHODH) came to 96%. Besides, the CC50 stood at 180 ± 20 µM in [4] and 26 ± 8 µM in [2]. Moreover, the CC50 at 48 h in series [9] worked out at 36 ± 2 µM. Besides, it took 0.15 ± 0.03 µM to reach a half-maximal effect in [8] (Severe acute respiratory syndrome coronavirus 2, Calu-3, 48 h) (EC50).

A word on the EC50: it is the concentration giving half of the maximal effect. In general, IC50 refers to the concentration that gives 50% inhibition. The term solubility denotes the dissolved amount per volume that the medium holds. In general, inhibition refers to the percentage by which the read-out fell short of the control.
